One may read the EC50 as the concentration that produces a half-maximal response. Read a high EC50 as a less potent agent.

Data set [1] has as its system 4T1 syngeneic orthotopic breast carcinoma. Description: Confocal microscopy of 4T1 tumor slices after i.v. injection of dual-labeled liposomes. The following applies: for extravasation and migration area in tumor: 24 h after i.v., 290 nm EPC/DSPE-PEG2000 liposomes with 0.2% DiD and Cy3-DSPE. Type of data set: in vivo, mice. As for the experimental part:
Lipids at the following molar ratios: HSPC/Chol/DSPE-PEG2000 (57/38/5) or EPC/DSPE-PEG2000 (95:5) with addition of 0.2% ICL and/or 0.2% FPL were mixed and dried under a nitrogen stream. The dry lipid cake was resuspended in PBS for a total lipid concentration of 20 mM, then incubated at 60° C. for 30 minutes. The solution was then vortexed for 2 minutes and bath sonicated. Liposomes were extruded by a syringe extruder (Avestin, Ottawa, Canada) through Whatman Nucleopore Track-Etch Membranes (200 nm pore size, 15 times). HSPC-based liposomes were extruded at 60° C., EPC-based liposomes were extruded at room temperature. Size and zeta potential were measured at room temperature in the presence of 1% phosphate-buffered saline using Zetasizer Nano (Malvern, UK). Liposomes were stored at 4° C. at a final concentration of 10 mM (total lipid) for a maximum period of 8 weeks before use.
4T1 cell line was purchased from the ATCC and verified using a sequencing core. GL261 cells were obtained from the National Cancer Institute (NCI), and CT2A cells were a gift from Dr. Tom Seyfried (Boston College). LY2 cells were from Dr. Sana Karam, University of Colorado Anschutz Medical campus. Cells were grown at 37° C. in RPMI 1640 medium containing 10% heat-inactivated fetal bovine serum, 10 mM HEPES, 100 U/ml penicillin, and […] streptomycin (all from Corning Inc. New York, NY, USA). BALB/c mice were bred in-house. Mice of 8-10 weeks of age (females) were implanted with 0.5×10^6 cells into the mammary fat pad (4T1) or subcutaneously in the jaw region (LY2) and used for experiments 1 week later when tumors reached ˜200-300 mm^3. For brain tumors, C57BL/6 mice (6-8 weeks old) were implanted with a total 1×10^5 GL261 or CT-2A cells per animal using an established protocol. To determine the distribution of liposomes in tumors and organs, liposomes were injected with 50 μl of 10 mM total lipid intravenously. Blood was collected via periorbital plexus using heparin glass capillaries, and the plasma was separated by centrifugation at 500 g for 5 min. In some experiments, mice were preinjected before dissection with 50 μl of FITC-tomato lectin (1 mg/ml) and 50 μl Hoechst 33324 (2 mg/ml) to visualize the vasculature and the nuclei. Mice were sacrificed with carbon dioxide, followed by cardiac perfusion with PBS through the left ventricle.
Nikon Eclipse AR1HD inverted confocal microscope with 405 nm, 488 nm, 561 nm, and 640 nm excitation lasers and corresponding emission filters was used. For high magnification imaging, liposomes were diluted 1:200 in PBS, mixed with glycerol at 1:1 ratio and 2 μl were placed on slide. For liposomes in plasma, the samples were diluted 1:20 and mixed with glycerol. The preparations in glycerol were spread under a coverslip and imaged under Apo60 or Apo100 Oil objective at 2048×2048 resolution. For tumor imaging, tumors or whole brains were frozen on dry ice and sliced with a blade into 1-2 mm thick slices. The slices were placed on a glass slide and imaged using Plan Apo 10 objective. Channels' voltage and laser intensity were adjusted using the dual labeled liposomes placed on a slide and imaged under the same magnification. These parameters were calibrated before each imaging session using the batch of liposomes used in that experiment. For quantification, multiple random image areas from different slices of the tumor (both periphery and center) were acquired at 512×512 resolution. Images were quantified with Fiji using customized macros. Briefly, 8-bit gray image stacks were thresholded for fluorescence in the Cy3 and Cy5 channels and the percentages of binary (positive) areas were calculated using the “Measure” function. All the data were plotted with Prism version 8.3.0 (GraphPad, San Diego, CA).

Data set [2] has as its system LY2 head and neck cancer. Description: Confocal microscopy of LY2 tumors after injection of dual-labeled liposomes. Type of data set: in vivo, mice. The following applies: 24 h; DiI/Cy5-DSPE labeled EPC/DSPE-PEG2000 liposomes. As to the method:
(§1) 4T1 cell line was purchased from the ATCC and verified using a sequencing core. GL261 cells were obtained from the National Cancer Institute (NCI), and CT2A cells were a gift from Dr. Tom Seyfried (Boston College). LY2 cells were from Dr. Sana Karam, University of Colorado Anschutz Medical campus. Cells were grown at 37° C. in RPMI 1640 medium containing 10% heat-inactivated fetal bovine serum, 10 mM HEPES, 100 U/ml penicillin, and […] streptomycin (all from Corning Inc. New York, NY, USA). BALB/c mice were bred in-house. Mice of 8-10 weeks of age (females) were implanted with 0.5×10^6 cells into the mammary fat pad (4T1) or subcutaneously in the jaw region (LY2) and used for experiments 1 week later when tumors reached ˜200-300 mm^3. […]
(§2) Nikon Eclipse AR1HD inverted confocal microscope with 405 nm, 488 nm, 561 nm, and 640 nm excitation lasers and corresponding emission filters was used. […] For quantification, multiple random image areas from different slices of the tumor (both periphery and center) were acquired at 512×512 resolution. Images were quantified with Fiji using customized macros. Briefly, 8-bit gray image stacks were thresholded for fluorescence in the Cy3 and Cy5 channels and the percentages of binary (positive) areas were calculated using the “Measure” function. […]

Data set [3] concerns syngeneic intracranial GL261 glioma. Description: Confocal microscopy of brain slices of GL261 glioma mice after i.v. dual-labeled liposomes. Type of data set: in vivo. The settings on record: 48 h post-injection, EPC/DSPE-PEG2000 liposomes, 0.2% DiI and 0.2% Cy5-DSPE. As for the experimental part: as §1, §2
Data set [4] in a line: Plasma fluorescence elimination profile after liposome injection. The data set is classed as in vivo, mice. The following applies: 24 h post-injection; DiI/Cy5-DSPE liposomes. As for the experimental part:
as §1, with “mm^3. For brain tumors, C57BL/6 mice (6-8 weeks old) were implanted with a total 1×10^5 GL261 or CT-2A cells per animal using an established protocol.” for “mm^3.”
Tumors and livers were placed in a 24-well plate and scanned as described above. […] Mean fluorescence was determined from 8-bit TIFF images using Fiji software by drawing a region of interest around the tumors and using the “Measure” function to determine mean gray values. […] For plasma fluorescence profile, plasma collected at different time points was serially diluted, dotted on a nitrocellulose membrane, scanned as above, and the mean fluorescence of dots was plotted versus time with Prism.

The nature of data set [5]: Ex vivo fluorescence imaging of excised tumors and livers. The data set is classed as in vivo, mice. As to the method:
Tumors and livers were placed in a 24-well plate and scanned as described above. To match the intensity of the channels, the same liposomes used for injection were diluted (1:10), dotted on a 0.45 μm nitrocellulose membrane, and scanned together with the samples. Mean fluorescence was determined from 8-bit TIFF images using Fiji software by drawing a region of interest around the tumors and using the “Measure” function to determine mean gray values. Such measurement is independent of the organ cross-section area. The mean gray values of non-injected tumors were subtracted from the measurements. For plasma fluorescence profile, plasma collected at different time points was serially diluted, dotted on a nitrocellulose membrane, scanned as above, and the mean fluorescence of dots was plotted versus time with Prism.

A short description of data set [6]: Lipid extraction of tumors and organs, dye biodistribution. The settings on record: 48 h post-injection. The data set is classed as in vivo, mice. As to the method:
For extraction using a modified Bligh-Dyer method, 50-100 mg tissue was homogenized as described above, 10 parts of chloroform/methanol (2:1) were added to the homogenate (considering that tissue weight is 1 part), and the samples were mixed at 1400 rpm for 2 h at room temperature on Eppendorf Thermomixer. The tubes were centrifuged at 500 g for 10 min. The organic phase (bottom, approximately 80% of the added amount) was carefully collected, dotted on a PVDF membrane and scanned for DiI and Cy5 fluorescence as described above. Different dilutions of liposomes (standard curve) were scanned together with the samples. The percentage of the injected DiI and Cy5 in the extract was calculated from the standard curve and divided by tissue weight. The fluorescence of control non-injected organs was subtracted from that of injected organs. For TLC analysis, the mobile phase consisted of chloroform: methanol (9:1) with 1% trifluoroacetic acid and the samples were run on TLC Silica Gel 60 F254 plates (EMD Millipore).

Data set [7] in a line: Skin extravasation and accumulation of liposomal lipid dyes. The data set is classed as in vivo, Mouse. As for the experimental part:
FIG. 40B: Liposomes were formulated with Cy3-DSPE, LR-DOPE or DiI. FIG. 40C: Mouse skin was excised 4 days after injection and the microscopic areas of accumulation and extravasation were counted. […] FIG. 40D-40F: circulation and skin accumulation of DiD and Cy5-DSPE liposomes (n=3 per group, 9 different skin areas pooled). FIG. 40G-40H: mixed DiI/Cy5-DSPE liposomes colocalize in skin blood vessels at 1 h, and colocalize in plasma (1000× magnification zoomed). Arrows in FIG. 40G point to DiI extravasation. […] Similar results were observed when mixed Cy3-DSPE/DiD liposomes were used (lower panel).

For data set [8], the system named is human glioma cell lines. The following applies: cited from earlier work.
In data set [9] the test system is MOLM13 leukemic cells. Description: MTT cytotoxicity assay in MOLM13 leukemic cells. The data set is classed as cell-based. The settings on record: Homo sapiens, MOLM-13, 48 h. (Tetrazolium assays rely on reduction of a dye to a coloured formazan, in cell work by metabolically active cells.)

Consider `CCCCCCCCCCCCCCCCCCN1C(=CC=CC2=[N+](CCCCCCCCCCCCCCCCCC)c3ccccc3C2(C)C)C(C)(C)c2ccccc21.[O-][Cl+3]([O-])([O-])[O-]` [DiI], for which the “fluorescence positive area in tumor images” value in data set [1] (4 h, 24 h and 48 h post-injection, EPC/DSPE-PEG2000 DiI/Cy5-DSPE liposomes, p-value<0.0001) is “significantly larger area than Cy5-DSPE”. For the same compound, in data set [1] (24 h, 150 nm HSPC/Chol/DSPE-PEG2000 liposomes (DOXIL formula), 0.2% DiI and Cy5-DSPE), the “extravasation and spreading in tumor” value is “more efficient extravasation and spreading”. For the same compound, the “extravasation and distribution in tumor” value in data set [1] (24 h post-injection, EPC/DSPE-PEG2000 liposomes, 0.2 mole % DiI and Cy5-DSPE, i.v.) was “efficiently extravasated and migrated throughout the tumor”. Moreover, in data set [2], the extravasation in tumor result is given as “much better extravasation”. In data set [3], the “accumulation and spreading in glioma” value is “accumulated and spread in tumors much more efficiently than Cy5-DSPE”. Further, in [4], the “dye cleared from the circulation” value is on record as “approximately 80%”. Also, in data set [5] (livers, later time points versus 1 h), the “fluorescence in liver images over time” value is listed as “increase”. For the same compound, in data set [5] (tumors, 1 h, 24 h, 48 h post-injection), the “fluorescence in tumor images over time” value is “continued to increase at 24 h and 48 h”. In addition, the “tissues with the highest dye amount” value in data set [6] is “highest in the tumor and liver”. Besides, in [6] (tumors, livers, spleens, kidneys, 1 h, 24 h), the “dye amount in tumor and organ extracts over time” value was “increase in all organs except the kidney over 48 h”. Moreover, in [7] (mixed DiI/Cy5-DSPE liposomes, 4 days later), the “extravasation and accumulation in skin cells” value is “only DiI extravasated and accumulated in skin cells”. Further, the skin extravasation result in [7] (skin excised 4 days after injection, liposomes with Cy3-DSPE, LR-DOPE or DiI) is listed as “more efficient extravasation than phospholipid dyes”.
For `COc1cccc2c1C(=O)c1c(O)c3c(c(O)c1C2=O)C[C@@](O)(C(=O)CO)C[C@@H]3O[C@H]1C[C@H](N)[C@H](O)[C@H](C)O1` [doxorubicin], the “toxicity to glioma cells (IC50)” value in data set [8] is on record as “nanomolar range”.
For `CCCCCCCCCCCCCCCCCC(=O)OC[C@H](COP(=O)(O)OCCNC(=O)CCCCCN1/C(=C/C=C/C2=[N+](C)c3ccccc3C2(C)C)C(C)(C)c2ccccc21)OC(=O)CCCCCCCCCCCCCCCCC.O=C[O-]` [Cy3-DSPE], in data set [1] (p-value<0.0001), the “extravasation and migration area in tumor” value was “mostly stayed in blood vessels”.
Still for that read-out and setting: the entry for `CCCCCCCCCCCCCCCCCCN1C(=CC=CC=CC2=[N+](CCCCCCCCCCCCCCCCCC)c3ccccc3C2(C)C)C(C)(C)c2ccccc21.O=S(=O)([O-])c1ccc(Cl)cc1` [DiD] is “extravasated and migrated over a significantly larger area than Cy3-DSPE”.
As for `Nc1ccn([C@@H]2O[C@H](CO)[C@@H](O)[C@@H]2O)c(=O)n1` [cytarabine], in data set [9], the EC50 was 0.065 µM.
As to `CC(=O)O[C@H]1C(=O)[C@@]2(C)[C@H]([C@H](OC(=O)c3ccccc3)[C@]3(O)C[C@H](OC(=O)[C@H](O)[C@@H](NC(=O)c4ccccc4)c4ccccc4)C(C)=C1C3(C)C)[C@]1(OC(C)=O)CO[C@@H]1C[C@@H]2O` [paclitaxel], in data set [8], the “toxicity to glioma cells (IC50)” value is “nanomolar range”.

Values taken from patent publication US20240299553A1, “INDOCARBOCYANINE LIPID DERIVATIVES FOR IN VIVO CARGO DELIVERY” (priority 2021, published 2024).
